Here are results for two compounds from US20200268835A1, “Compounds For Use in NASH” (Novo Nordisk A/S, priority 2019, published 2020).

Numbered stars: 1 amine (or outer) side, 2 acyl side, 3 side chain; on linkers, the order of the positions; unused ones are H or OH. Square brackets hold non-standard residues; d marks the D form. Side chains are listed from the residue outwards. Peptide text beside a SMILES is read from it. * marks the point of attachment. C18 diacid = O=C(O)CCCCCCCCCCCCCCCCC(=O)*; γGlu = O=C(O)[C@H](CCC(=O)[*:2])N[*:1]; Ac4c = NC1(C(=O)O)CCC1; AEEA = NCCOCCOCC(=O)O; Aib = CC(C)(N)C(=O)O

One test concerns the target T1, human GLP-1 receptor (Homo sapiens, UniProt P43220).
T1 construct: expressed in transfected cells; membrane preparation
As to the kind of experiment: GLP-1 receptor SPA binding assay. The following applies: 0% HSA; BHK cell membranes; displacement of [125I]-GLP-1(7-36)-NH2; read-out: Human GLP1 R SPA binding 0% HSA IC50. The text has this:
(§1) In one embodiment affinity refers to in vitro binding affinity, i.e. performance in a GLP-1 receptor binding affinity assay and in a glucagon receptor binding affinity assay, more particularly to the capability of binding the human GLP-1 receptor and to the human glucagon receptor. The binding affinity of the human GLP-1 receptor may be measured in a binding assay, e.g. in a stably transfected BHK cell line that expresses the human GLP-1 receptor. Radioactively labelled GLP-1 binds to the receptor and may be displaced competitvely by a compound. Binding of radioligand may be determined in the presence of scintillation proximity assay (SPA) beads which bind to cell membranes and when radioactivity is close to the bead it produces light which is measured and is a measure of the in vitro binding affinity. […] The binding affinity of the human glucagon receptor may be measured in a binding affinity assay, e.g. in a stably transfected BHK cell line that expresses the human glucagon receptor. […] Binding of radioligand may be determined in the presence of scintillation proximity assay (SPA) beads which bind to cell membranes and when radioactivity is close to the bead it produces light which is measured and is a measure of the in vitro binding affinity. […] The protein concentration was subsequently determined, and the membranes were stored at −80° C. until use. […]
On the technique in general: Loss of bound radioactivity is the signal in a displacement assay; it reports binding, not function.

A short description of test [1]: Plasma alanine transferase levels in diet-induced NASH mice. It is filed as in vivo, male C57BL/6 mice. Particulars: after 56 days of treatment, SC once daily; FIG. 3. As to the method:
(§2) At 5 weeks of age, male C57BL/6 mice were purchased from JanVier, France. During the acclimatization and diet-induction period, the mice were group housed ten per cage in custom-made cabinets under a 12:12 light dark cycle (lights on from 3 AM-3 PM) at controlled temperature conditions (22±1° C.; 50±10% relative humidity). Throughout the diet-induction the mice had ad libitum access to AMLN diet (D09100301, Research Diet, USA) (40% fat (18% trans-fat), 40% carbohydrates (20% fructose) and 2% cholesterol) or regular rodent chow (chow vehicle group) (Altromin 1324, Brogaarden, Denmark) and tap water. Throughout the study period the mice had ad libitum access to AMLN diet, except the weight-matched group which was food restricted to lower the body weight to the same level as for animals receiving compound A or compound B, or regular rodent chow (chow vehicle group) and tap water. […]
(§3) During the diet-induction period, body weight was intermittently monitored. […]
Animal experiments were conducted as described in the section “General Methods of Animal Experiments”. […] All parameters are measured in single determinations using autoanalyzer Cobas C-111 with commercial kit (Roche Diagnostics, Germany) according to the manufacturer's instructions. Data are expressed as mean±SEM (NASH groups n=11-12, Chow Vehicle group n=10). […]

Test [2] in a line: Hepatic terminal triglycerides and cholesterol content in diet-induced NASH mice. Format: in vivo, male C57BL/6 mice. The following applies: after 56 days of treatment; FIG. 5A. As to the method:
as §2, §3
Animal experiments were conducted as described in the section “General Methods of Animal Experiments”. Triglycerides and total cholesterol content in liver homogenates were measured in single determinations using autoanalyzer Cobas C-111 with commercial kit (Roche Diagnostics, Germany) according to manufacturer's instructions. […]

The next test addresses T2, human glucagon receptor (Homo sapiens, UniProt P47871).
T2 construct: expressed in transfected cells; membrane preparation
The test is described as follows: Glucagon receptor SPA binding assay. Particulars: 0% HSA; BHK cell membranes; displacement of [125I]-glucagon; read-out: Human GCG R SPA binding 0% HSA IC50.
From the text: as §1

The IC50 is the concentration at which inhibition is half-maximal.

T1 sequence (P43220 24-463): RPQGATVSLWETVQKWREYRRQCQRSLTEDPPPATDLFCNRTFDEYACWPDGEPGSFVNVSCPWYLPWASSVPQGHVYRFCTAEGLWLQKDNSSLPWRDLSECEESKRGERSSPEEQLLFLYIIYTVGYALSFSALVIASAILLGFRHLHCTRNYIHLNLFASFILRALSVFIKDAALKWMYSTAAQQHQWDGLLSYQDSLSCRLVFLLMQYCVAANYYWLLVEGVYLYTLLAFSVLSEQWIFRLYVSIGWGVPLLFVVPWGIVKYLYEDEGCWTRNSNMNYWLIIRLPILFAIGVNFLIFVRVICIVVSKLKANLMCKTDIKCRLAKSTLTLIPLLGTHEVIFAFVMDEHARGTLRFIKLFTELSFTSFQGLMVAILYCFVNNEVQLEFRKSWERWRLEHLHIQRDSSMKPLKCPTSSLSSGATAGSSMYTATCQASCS
T2 sequence (P47871 26-477): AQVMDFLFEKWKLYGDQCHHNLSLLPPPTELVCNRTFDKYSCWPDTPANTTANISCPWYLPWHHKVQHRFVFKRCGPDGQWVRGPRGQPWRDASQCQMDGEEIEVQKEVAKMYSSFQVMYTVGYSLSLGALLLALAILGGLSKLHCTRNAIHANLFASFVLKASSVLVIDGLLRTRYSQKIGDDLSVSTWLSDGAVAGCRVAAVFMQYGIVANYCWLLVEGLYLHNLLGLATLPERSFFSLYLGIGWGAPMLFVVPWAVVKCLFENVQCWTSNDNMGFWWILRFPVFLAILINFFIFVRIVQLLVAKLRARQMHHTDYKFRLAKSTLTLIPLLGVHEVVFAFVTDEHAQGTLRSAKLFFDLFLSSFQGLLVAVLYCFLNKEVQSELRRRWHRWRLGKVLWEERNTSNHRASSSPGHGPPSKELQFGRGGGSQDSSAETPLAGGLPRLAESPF

As for `CC(C)C[C@H](NC(=O)[C@H](CC(=O)O)NC(=O)[C@H](CC(C)C)NC(=O)[C@H](Cc1ccc(O)cc1)NC(=O)[C@H](CCCCN)NC(=O)[C@H](CO)NC(=O)[C@H](CC(C)C)NC(=O)[C@H](CC(=O)O)NC(=O)[C@H](CO)NC(=O)[C@@H](NC(=O)[C@H](Cc1ccccc1)NC(=O)[C@@H](NC(=O)CNC(=O)[C@H](CCC(N)=O)NC(=O)C1(NC(=O)[C@@H](N)Cc2c[nH]cn2)CCC1)[C@@H](C)O)[C@@H](C)O)C(=O)N[C@@H](CCCNC(=N)N)C(=O)N[C@@H](CCCNC(=N)N)C(=O)N[C@@H](C)C(=O)N[C@@H](CCCNC(=N)N)C(=O)N[C@@H](CC(=O)O)C(=O)N[C@@H](Cc1ccccc1)C(=O)N[C@H](C(=O)N[C@@H](CCC(N)=O)C(=O)N[C@@H](Cc1c[nH]c2ccccc12)C(=O)N[C@@H](CC(C)C)C(=O)N[C@@H](CC(C)C)C(=O)N[C@@H](CCCCNC(=O)CC[C@H](NC(=O)CC[C@H](NC(=O)COCCOCCNC(=O)COCCOCCNC(=O)CC[C@H](NC(=O)CC[C@H](NC(=O)CCCCCCCCCCCCCCCCC(=O)O)C(=O)O)C(=O)O)C(=O)O)C(=O)O)C(=O)N[C@H](C(N)=O)[C@@H](C)O)C(C)C` [Compound B, N^ε28-[(4S)-4-carboxy-4-[[(4S)-4-carboxy-4-[[2-[2-[2-[[2-[2-[2-[[(4S)-4-carboxy-4-[[(4S)-4-carboxy-4-(17-carboxyheptadecanoylamino)butanoyl]amino]butanoyl]amino]ethoxy]ethoxy]acetyl]amino]ethoxy]ethoxy]acetyl]amino]butanoyl]amino]butanoyl]-[Acb2,Leu10,Leu16,Arg20,Leu27,Lys28]-Glucagon amide] (H-H[Ac4c]QGTFTSDLSKYLDLRRARDFVQWLLK([γGlu-γGlu-AEEA-AEEA-γGlu-γGlu-C18 diacid])T-NH2), the 50% inhibitory concentration (IC50) worked out at 1.6 nM on human GLP-1 receptor and 0.8 nM on human glucagon receptor. In test [1], the “effect on plasma ALT levels compared with the weight-matched (WM) group” value is “the observed effect is bigger”. Also, the “effect on liver triglyceride levels compared with the weight-matched (WM) group” value in test [2] is given as “the observed effect is bigger”.

In the case of `CC(C)C[C@H](NC(=O)[C@H](Cc1ccc(O)cc1)NC(=O)[C@H](CCCCN)NC(=O)[C@H](CO)NC(=O)[C@H](CC(C)C)NC(=O)[C@H](CC(=O)O)NC(=O)[C@H](CO)NC(=O)[C@@H](NC(=O)[C@H](Cc1ccccc1)NC(=O)[C@@H](NC(=O)CNC(=O)[C@H](CCC(N)=O)NC(=O)C(C)(C)NC(=O)[C@@H](N)Cc1c[nH]cn1)[C@@H](C)O)[C@@H](C)O)C(=O)N[C@@H](CCC(=O)O)C(=O)N[C@@H](CO)C(=O)N[C@@H](CCCCN)C(=O)N[C@@H](CCCNC(=N)N)C(=O)N[C@@H](C)C(=O)N[C@@H](CCCNC(=N)N)C(=O)N[C@@H](CCC(=O)O)C(=O)N[C@@H](Cc1ccccc1)C(=O)N[C@H](C(=O)N[C@@H](CCC(N)=O)C(=O)N[C@@H](Cc1c[nH]c2ccccc12)C(=O)N[C@@H](CC(C)C)C(=O)N[C@@H](CC(C)C)C(=O)N[C@@H](CCCCNC(=O)CC[C@H](NC(=O)CC[C@H](NC(=O)[C@H](CO)NC(=O)[C@H](CCC(=O)O)NC(=O)[C@H](CO)NC(=O)CC[C@H](NC(=O)CC[C@H](NC(=O)CCCCCCCCCCCCCCCCC(=O)O)C(=O)O)C(=O)O)C(=O)O)C(=O)O)C(=O)N[C@H](C(N)=O)[C@@H](C)O)C(C)C` [Compound A, N^ε28-[(4S)-4-carboxy-4-[[(4S)-4-carboxy-4-[[(2S)-2-[[(2S)-4-carboxy-2-[[(2S)-2-[[(4S)-4-carboxy-4-[[(4S)-4-carboxy-4-(17-carboxyheptadecanoylamino)butanoyl]amino]butanoyl]amino]-3-hydroxypropanoyl]amino]butanoyl]amino]-3-hydroxypropanoyl]amino]butanoyl]amino]butanoyl]-[Aib2,Leu10,Glu15,Lys17,Arg20,Glu21,Leu27,Lys28]-Glucagon amide] (H-H[Aib]QGTFTSDLSKYLESKRAREFVQWLLK([γGlu-γGlu-Ser-Glu-Ser-γGlu-γGlu-C18 diacid])T-NH2), the IC50 worked out at 0.3 nM on human GLP-1 receptor and 1.4 nM at human glucagon receptor. The “effect on plasma ALT levels compared with the weight-matched (WM) group” value in test [1] is on record as “the observed effect is bigger”. The “effect on liver triglyceride levels compared with the weight-matched (WM) group” value in test [2] is given as “the observed effect is bigger”.
